US8093252B2, “Crystalline polymorphic form of glucokinase activator” (AstraZeneca AB, priority 2009, dated 2012)

How the values were obtained:
[1] = relative stability of the crystalline forms of the compound; type: physicochemical; conditions: crystalline form prepared from isopropyl alcohol (IPA)
[2] = dihydrate from slurry of the compound in water, disclosed in WO 2007/007041; cited from earlier work

stability of crystalline form relative to the other forms [1]	SMILES	stability of crystalline form in the presence of water [2]
more stable	COC[C@H](C)Oc1cc(Oc2cnc(C(=O)N3CCC3)cn2)cc(C(=O)Nc2cnc(C)cn2)c1 [Form 6, 3-{[5-(azetidin-1-ylcarbonyl)pyrazin-2-yl]oxy}-5-{[(1S)-1-methyl-2-(methyloxy)ethyl]oxy}-N-(5-methylpyrazin-2-yl)benzamide]	–
–	COC[C@H](C)Oc1cc(Oc2cnc(C(=O)N3CCC3)cn2)cc(C(=O)Nc2cnc(C)cn2)c1 [Form 3, 3-{[5-(azetidin-1-ylcarbonyl)pyrazin-2-yl]oxy}-5-{[(1S)-1-methyl-2-(methyloxy)ethyl]oxy}-N-(5-methylpyrazin-2-yl)benzamide]	most stable
